Test results taken from US12060351B2, “Thiadiazole IRAK4 inhibitors” (Gilead Sciences, Inc., priority 2018, dated 2024).
Like-named read-outs stand apart in the source and are kept apart here.

Experiments:
IRAK4 enzyme = target: T1, IRAK4 enzyme (Homo sapiens, UniProt Q9NWZ3); test: IRAK4 Biochemical Assay (TR-FRET, STK1 KinEASE); conditions: 500 μM ATP, Table 2 second part (compounds 33-343), read-out: IC50 IRAK4-HTBS
T1 construct: purchased Carna Biosciences, Chuo-ku, Kobe, Japan
T1 sequence (Q9NWZ3 1-460): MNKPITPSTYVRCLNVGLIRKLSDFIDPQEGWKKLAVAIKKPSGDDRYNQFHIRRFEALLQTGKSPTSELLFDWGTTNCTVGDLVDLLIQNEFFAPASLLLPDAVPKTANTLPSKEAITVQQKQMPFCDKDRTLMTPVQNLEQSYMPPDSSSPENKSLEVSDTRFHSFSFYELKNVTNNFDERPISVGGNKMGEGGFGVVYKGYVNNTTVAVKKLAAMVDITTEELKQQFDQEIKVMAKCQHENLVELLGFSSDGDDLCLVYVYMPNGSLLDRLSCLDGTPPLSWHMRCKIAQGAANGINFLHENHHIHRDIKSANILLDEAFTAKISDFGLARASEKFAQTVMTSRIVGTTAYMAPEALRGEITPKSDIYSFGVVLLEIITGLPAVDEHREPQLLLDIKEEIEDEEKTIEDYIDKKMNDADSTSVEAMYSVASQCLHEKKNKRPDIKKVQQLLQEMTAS
Outline: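 Human IRAK4 (0.75 nM) preincubated 15 min with compound and 2 μM STK1 peptide, then reacted 120 min at room temperature with 500 μM ATP in HEPES pH 7.0 buffer with MgCl2 and DTT. EDTA stop with Cryptate anti-phosphopeptide antibody and tracer, 60 min; TR-FRET read as 665/615 nm ratio.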

TNFα = test: IRAK4 Monocyte TNFα Cell Based Assay (LPS-stimulated, TR-FRET TNFα detection); design: species or system human; conditions: Homo sapiens, Monocyte, read-out: EC50 MONO TNF HTRF
Outline: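 Monocytes (5,000 cells/well) treated with compound (0.1% DMSO) for 1 hour at 37° C, then stimulated with 50 pg/ml LPS for 4 hours. TNFα in medium quantified by TR-FRET two-antibody detection after overnight room-temperature incubation. Percent of control calculated against unstimulated (0%) and LPS-stimulated (100%) cells.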

[1] = human monocytes, LPS-stimulated, Table 2 second part (compounds 33-343)

IC50 (IRAK4 enzyme) [nM] | EC50 (TNFα; [1]) [nM] | SMILES | EC50 (TNFα) [nM]
0.63 | 24.1 | C[C@]1(O)C[C@@H](c2nnc(-c3cnc(-c4ccc5cc(C#N)cnn45)cc3NC3COC3)s2)C1 [Example 200, 7-(5-(5-((1s,3s)-3-hydroxy-3-methylcyclobutyl)-1,3,4-thiadiazol-2-yl)-4-(oxetan-3-ylamino)pyridin-2-yl)pyrrolo[1,2-b]pyridazine-3-carbonitrile] | –
0.54 | 2.4 | CC(=O)N[C@@H]1[C@@H]2CC[C@H]1CN(c1nnc(-c3cnc(-c4ccc5cc(C#N)cnn45)cc3NC3COC3)s1)C2 [Example 184, N-((1R,5S,8s)-3-(5-(6-(3-cyanopyrrolo[1,2-b]pyridazin-7-yl)-4-(oxetan-3-ylamino)pyridin-3-yl)-1,3,4-thiadiazol-2-yl)-3-azabicyclo[3.2.1]octan-8-yl)acetamide] | –
1.23 | 166 | CC(=O)N[C@H]1C[C@H](c2nnc(-c3cnc(-c4ccc5cc(C#N)cnn45)cc3NC3COC3)s2)C1 [Example 202, N-((1r,3r)-3-(5-(6-(3-cyanopyrrolo[1,2-b]pyridazin-7-yl)-4-(oxctan-3-ylamino)pyridin-3-yl)-1,3,4-thiadiazol-2-yl)cyclobutyl)acetamide] | –
0.4 | 15.9 | CC(=O)N[C@H]1C[C@@H](c2nnc(-c3cnc(-c4ccc5cc(C#N)cnn45)cc3NC(C)C)s2)C1 [Compound 279, N-((1s,3s)-3-(5-(6-(3-cyanopyrrolo[1,2-b]pyridazin-7-yl)-4-(isopropylamino)pyridin-3-yl)-1,3,4-thiadiazol-2-yl)cyclobutyl)acetamide] | –
0.89 | 26.2 | COC(=O)N[C@H]1CC[C@H](c2nnc(-c3cnc(-c4ccc5cc(C#N)cnn45)cc3NC(C)C)s2)CC1 [Example 126, methyl ((1r,4r)-4-(5-(6-(3-cyanopyrrolo[1,2-b]pyridazin-7-yl)-4-(isopropylamino)pyridin-3-yl)-1,3,4-thiadiazol-2-yl)cyclohexyl)carbamate] | –
0.53 | 37.8 | CC(=O)N[C@H]1[C@@H]2COC[C@H]1CN(c1nnc(-c3cnc(-c4ccc5cc(C#N)cnn45)cc3NC(C)C)s1)C2 [Example 182, N-((1R,5S,9r)-7-(5-(6-(3-cyanopyrrolo[1,2-b]pyridazin-7-yl)-4-(isopropylamino)pyridin-3-yl)-1,3,4-thiadiazol-2-yl)-3-oxa-7-azabicyclo[3.3.1]nonan-9-yl)acetamide] | –
0.8 | 22.6 | CC(C)(O)C(=O)N[C@H]1CC[C@@H](c2nnc(-c3cnc(-c4ccc5cc(C#N)cnn45)cc3NC3COC3)s2)CC1 [Compound 311, N-((1s,4s)-4-(5-(6-(3-cyanopyrrolo[1,2-b]pyridazin-7-yl)-4-(oxetan-3-ylamino)pyridin-3-yl)-1,3,4-thiadiazol-2-yl)cyclohexyl)-2-hydroxy-2-methylpropanamide] | –

Continued, compound first:

SMILES | IC50 (IRAK4 enzyme) [nM] | EC50 (TNFα; [1]) [nM] | EC50 (TNFα) [nM]
COC(=O)NC[C@H]1C[C@H](Nc2cc(-c3ccc4cc(C#N)cnn34)ncc2-c2nnc([C@H]3CC[C@H](NC(=O)C4CC4)CC3)s2)C1 [Example 134, methyl (((1R,3r)-3-((2-(3-cyanopyrrolo[1,2-b]pyridazin-7-yl)-5-(5-((1r,4R)-4-(cyclopropanecarboxamido)cyclohexyl)-1,3,4-thiadiazol-2-yl)pyridin-4-yl)amino)cyclobutyl)methyl)carbamate] | 0.94 | 6.9 | –
CC(=O)N[C@@H]1[C@@H]2C[C@H]1CN(c1nnc(-c3cnc(-c4ccc5cc(C#N)cnn45)cc3NC3COC3)s1)C2 [Example 179, N-((1R,5S,6s)-3-(5-(6-(3-cyanopyrrolo[1,2-b]pyridazin-7-yl)-4-(oxetan-3-ylamino)pyridin-3-yl)-1,3,4-thiadiazol-2-yl)-3-azabicyclo[3.1.1]heptan-6-yl)acetamide] | 0.37 | – | 6.4
CC(=O)N[C@H]1[C@@H]2C[C@H]1CN(c1nnc(-c3cnc(-c4ccc5cc(C#N)cnn45)cc3NC(C)C)s1)C2 [Example 45, N-((1R,5S,6r)-3-(5-(6-(3-cyanopyrrolo[1,2-b]pyridazin-7-yl)-4-(isopropylamino)pyridin-3-yl)-1,3,4-thiadiazol-2-yl)-3-azabicyclo[3.1.1]heptan-6-yl)acetamide] | 1.13 | – | 11.8
CC(C)Nc1cc(-c2ccc3cc(C#N)cnn23)ncc1-c1nnc(C(=O)N[C@H]2C[C@@](C)(O)C2)s1 [Example 218, 5-(6-(3-cyanopyrrolo[1,2-b]pyridazin-7-yl)-4-(isopropylamino)pyridin-3-yl)-N-((1s,3s)-3-hydroxy-3-methylcyclobutyl)-1,3,4-thiadiazole-2-carboxamide] | 1.12 | 858 | –
CC(C)Nc1cc(-c2ccc3cc(C#N)cnn23)ncc1-c1nnc(N2C[C@H]3CC[C@@H](C2)[C@@H]3NC(=O)N2CCOCC2)s1 [Example 57, N-((1R,5S,8s)-3-(5-(6-(3-cyanopyrrolo[1,2-b]pyridazin-7-yl)-4-(isopropylamino)pyridin-3-yl)-1,3,4-thiadiazol-2-yl)-3-azabicyclo[3.2.1]octan-8-yl)morpholine-4-carboxamide] | 1.16 | 6.8 | –
COC(=O)N[C@H]1CC[C@H](Nc2cc(-c3ccc4cc(C#N)cnn34)ncc2-c2nnc(N3C[C@H]4CC[C@@H](C3)[C@@H]4NC(C)=O)s2)CC1 [Example 54, methyl ((1R,4r)-4-((5-(5-((1R,5S,8S)-8-acetamido-3-azabicyclo[3.2.1]octan-3-yl)-1,3,4-thiadiazol-2-yl)-2-(3-cyanopyrrolo[1,2-b]pyridazin-7-yl)pyridin-4-yl)amino)cyclohexyl)carbamate] | 0.73 | 2.4 | –
CC(C)Nc1cc(-c2ccc3cc(C#N)cnn23)ncc1-c1nnc(C(=O)N[C@H]2C[C@@H](O)C2)s1 [Example 215, 5-(6-(3-cyanopyrrolo[1,2-b]pyridazin-7-yl)-4-(isopropylamino)pyridin-3-yl)-N-((1s,3s)-3-hydroxycyclobutyl)-1,3,4-thiadiazole-2-carboxamide] | 0.7 | 3100 | –
COC(=O)NC[C@H]1C[C@H](Nc2cc(-c3ccc4cc(C#N)cnn34)ncc2-c2nnc(N3CCN4CCOC[C@H]4C3)s2)C1 [Example 51, methyl (((1R,3r)-3-((2-(3-cyanopyrrolo[1,2-b]pyridazin-7-yl)-5-(5-((R)-hexahydropyrazino[2,1-c][1,4]oxazin-8(1H)-yl)-1,3,4-thiadiazol-2-yl)pyridin-4-yl)amino)cyclobutyl)methyl)carbamate] | 1.73 | 4.7 | –
CC(C)Nc1cc(-c2ccc3cc(C#N)cnn23)ncc1-c1nnc(N2C[C@H]3CC[C@@H](C2)[C@@H]3NC(=O)N2CCN(S(C)(=O)=O)CC2)s1 [Example 106, N-((1R,5S,8s)-3-(5-(6-(3-cyanopyrrolo[1,2-b]pyridazin-7-yl)-4-(isopropylamino)pyridin-3-yl)-1,3,4-thiadiazol-2-yl)-3-azabicyclo[3.2.1]octan-8-yl)-4-(methylsulfonyl)piperazine-1-carboxamide] | 1.09 | 2.6 | –
C[C@H](C#N)Nc1cc(-c2ccc3cc(C#N)cnn23)ncc1-c1nnc(N2C[C@H]3CC[C@@H](C2)[C@@H]3NC(=O)C(C)(C)O)s1 [Example 86, N-((1R,5S,8S)-3-(5-(4-(((R)-1-cyanoethyl)amino)-6-(3-cyanopyrrolo[1,2-b]pyridazin-7-yl)pyridin-3-yl)-1,3,4-thiadiazol-2-yl)-3-azabicyclo[3.2.1]octan-8-yl)-2-hydroxy-2-methylpropanamide] | 0.65 | 0.6 | –
CC(=O)N[C@]1(C)[C@@H]2CC[C@H]1CN(c1nnc(-c3cnc(-c4ccc5cc(C#N)cnn45)cc3NC(C)C)s1)C2 [Example 155, N-((1R,5S,8s)-3-(5-(6-(3-cyanopyrrolo[1,2-b]pyridazin-7-yl)-4-(isopropylamino)pyridin-3-yl)-1,3,4-thiadiazol-2-yl)-8-methyl-3-azabicyclo[3.2.1]octan-8-yl)acetamide] | 1.52 | 7.4 | –
CC(C)Nc1cc(-c2ccc3cc(C#N)cnn23)ncc1-c1nnc([C@H]2CC[C@@H](NC(=O)C(C)(C)O)CC2)s1 [Compound 312, N-((1s,4s)-4-(5-(6-(3-cyanopyrrolo[1,2-b]pyridazin-7-yl)-4-(isopropylamino)pyridin-3-yl)-1,3,4-thiadiazol-2-yl)cyclohexyl)-2-hydroxy-2-methylpropanamide] | 0.91 | 17.5 | –
CC(C)Nc1cc(-c2ccc3cc(C#N)cnn23)ncc1-c1nnc(N2C[C@H]3CC[C@@H](C2)[C@@H]3NC(=O)C2(C)CCOCC2)s1 [Example 95, N-((1R,5S,8s)-3-(5-(6-(3-cyanopyrrolo[1,2-b]pyridazin-7-yl)-4-(isopropylamino)pyridin-3-yl)-1,3,4-thiadiazol-2-yl)-3-azabicyclo[3.2.1]octan-8-yl)-4-methyltetrahydro-2H-pyran-4-carboxamide] | 0.7 | 4.1 | –
